# According to patent US12583849B2, “KCNT1 inhibitors and methods of use” (Praxis Precision Medicines, Inc., priority 2020, dated 2026):
# Target: T1, KCNT1 (KNa1.1, Slack) (Homo sapiens, UniProt Q5JUK3)
# T1 construct: expressed in transfected cells; host or cells: HEK-TREX (tetracycline-inducible cell line)
# T1 sequence (Q5JUK3 1-1230): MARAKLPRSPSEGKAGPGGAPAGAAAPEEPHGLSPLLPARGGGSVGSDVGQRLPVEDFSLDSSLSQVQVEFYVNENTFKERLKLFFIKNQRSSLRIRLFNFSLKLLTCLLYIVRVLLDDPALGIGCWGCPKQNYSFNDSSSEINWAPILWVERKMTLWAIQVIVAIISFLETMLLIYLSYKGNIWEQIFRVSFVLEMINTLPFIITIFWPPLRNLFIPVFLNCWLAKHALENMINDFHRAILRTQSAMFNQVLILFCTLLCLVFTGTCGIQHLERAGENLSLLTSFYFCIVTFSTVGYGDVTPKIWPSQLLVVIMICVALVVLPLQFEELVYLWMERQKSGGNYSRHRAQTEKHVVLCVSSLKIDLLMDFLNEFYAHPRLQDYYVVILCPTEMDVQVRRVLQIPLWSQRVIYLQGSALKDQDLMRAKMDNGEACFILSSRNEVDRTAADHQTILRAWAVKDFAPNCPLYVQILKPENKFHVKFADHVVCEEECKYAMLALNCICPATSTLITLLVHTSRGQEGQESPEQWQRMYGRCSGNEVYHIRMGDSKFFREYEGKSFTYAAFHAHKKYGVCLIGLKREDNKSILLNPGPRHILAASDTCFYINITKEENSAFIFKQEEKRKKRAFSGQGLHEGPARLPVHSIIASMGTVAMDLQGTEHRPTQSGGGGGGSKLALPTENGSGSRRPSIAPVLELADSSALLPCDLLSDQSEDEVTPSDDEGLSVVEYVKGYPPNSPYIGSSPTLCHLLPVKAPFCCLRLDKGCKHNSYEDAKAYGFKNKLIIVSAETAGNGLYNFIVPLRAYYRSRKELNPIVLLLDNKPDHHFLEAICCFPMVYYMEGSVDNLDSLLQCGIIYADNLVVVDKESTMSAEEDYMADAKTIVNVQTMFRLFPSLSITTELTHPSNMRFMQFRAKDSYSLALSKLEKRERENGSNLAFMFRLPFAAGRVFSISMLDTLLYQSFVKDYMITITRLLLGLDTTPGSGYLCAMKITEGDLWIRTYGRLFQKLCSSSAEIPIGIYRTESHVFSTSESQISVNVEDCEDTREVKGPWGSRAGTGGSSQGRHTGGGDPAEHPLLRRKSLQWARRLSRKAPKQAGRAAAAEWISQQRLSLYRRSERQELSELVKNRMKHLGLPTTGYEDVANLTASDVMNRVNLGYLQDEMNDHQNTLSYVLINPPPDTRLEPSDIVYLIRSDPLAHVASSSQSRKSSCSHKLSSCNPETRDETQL
# Assay: KCNT1-WT-Basal Patch Clamp Assay
# Type: cell-based
# Details: tetracycline inducible cell line (HEK-TREX); SyncroPatch 384PE automated patch clamp, perforated patch mode, room temperature, step from -80 mV to 0 mV
# Experimental: KCNT1-WT-Basal—Patch Clamp Assay
# Inhibition of KCNT1 (KNa1.1, Slack) was evaluated using a tetracycline inducible cell line (HEK-TREX). Currents were recorded using the SyncroPatch 384PE automated, patch clamp system. Pulse generation and data collection were performed with PatchController384 V1.3.0 and DataController384 V1.2.1 (Nanion Technologies). The access resistance and apparent membrane capacitance were estimated using built-in protocols. Current were recorded in perforated patch mode (10 μM escin) from a population of cells. The cells were lifted, triturated, and resuspended at 800,000 cells/ml. The cells were allowed to recover in the cell hotel prior to experimentation. Currents were recorded at room temperature. The external solution contained the following (in mM): NaCl 105, NMDG 40, KCl 4, MgCl2 1, CaCl2 5 and HEPES 10 (pH=7.4, Osmolarity ˜300 mOsm). The extracellular solution was used as the wash, reference and compound delivery solution. The internal solution contained the following (in mM): NaCl 70, KF 70, KCl 10, EGTA 5, HEPES 5 and Escin 0.01 (pH=7.2, Osmolarity ˜295 mOsm). Escin is made at a 5 mM stock in water, aliquoted, and stored at −20° C. The compound plate was created at 2× concentrated in the extracellular solution. The compound was diluted to 1:2 when added to the recording well. The amount of DMSO in the extracellular solution was held constant at the level used for the highest tested concentration. A holding potential of −80 mV with a 100 ms step to 0 mV was used. Mean current was measured during the step to 0 mV. […] The average mean current from 3 sweeps was calculated and the % inhibition of each compound was calculated. The % Inhibition as a function of the compound concentration was fit with a Hill equation to derive IC50, slope, min and max parameters. If KCNT1 inhibition was less than 50% at the highest tested concentration or if an IC50 could not be calculated, then a percent inhibition was reported in place of the IC50.
# In this table, “A” indicates IC50 of less than or equal to 1 μM; “B” indicates inhibition of between 1 μM to 20 μM; and “C” indicates inhibition of greater than or equal to 20 μM.
row,IC50 [nM],SMILES
1,≤ 1000,"C[C@H](NC(=O)c1cccc(C(F)(F)F)c1)c1nc(-c2ccnc(C3CC3)c2)no1 [Compound I-95, (S)—N-(1-(3-(2-cyclopropylpyridin-4-yl)-1,2,4-oxadiazol-5-yl)ethyl)-3-(trifluoromethyl)benzamide]"
2,≤ 1000,"C[C@H](NC(=O)c1ccc(Cl)cc1)c1nc(-c2ccnc(C3CC3)c2)no1 [Compound I-62, (S)-4-chloro-N-(1-(3-(2-cyclopropylpyridin-4-yl)-1,2,4-oxadiazol-5-yl)ethyl)benzamide]"
3,≤ 1000,"C[C@H](NC(=O)c1cccc(OC(F)(F)F)c1)c1nc(-c2ccnc(C3CC3)c2)no1 [Compound I-103, (S)—N-(1-(3-(2-cyclopropylpyridin-4-yl)-1,2,4-oxadiazol-5-yl)ethyl)-3-(trifluoromethoxy)benzamide]"
4,≤ 1000,"CC(C)Oc1cc(-c2noc([C@H](C)NC(=O)c3ccccc3)n2)ccn1 [Compound I-43, (S)—N-(1-(3-(2-isopropoxypyridin-4-yl)-1,2,4-oxadiazol-5-yl)ethyl)benzamide]"
5,≤ 1000,"C[C@H](NC(=O)[C@H]1CC[C@H](C)CC1)c1nc(-c2ccnc(C3CC3)c2)no1 [Compound I-29, (S)—N-(1-(3-(2-cyclopropylpyridin-4-yl)-1,2,4-oxadiazol-5-yl)ethyl)-4-methylcyclohexane-1-carboxamide]"
6,≤ 1000,"CCOc1cc(-c2noc([C@H](C)NC(=O)c3ccccc3)n2)ccn1 [Compound I-44, (S)—N-(1-(3-(2-ethoxypyridin-4-yl)-1,2,4-oxadiazol-5-yl)ethyl)benzamide]"
7,≤ 1000,"C[C@H](NC(=O)c1cccc(Cl)c1)c1nc(-c2ccnc(C3CCC3)c2)no1 [Compound I-100, (S)-3-chloro-N-(1-(3-(2-cyclobutylpyridin-4-yl)-1,2,4-oxadiazol-5-yl)ethyl) benzamide]"
8,≤ 1000,"C[C@H](NC(=O)c1ccnc(C2CC2)c1)c1nc(-c2ccnc(C3CC3)c2)no1 [Compound I-99, (S)-2-cyclopropyl-N-(1-(3-(2-cyclopropylpyridin-4-yl)-1,2,4-oxadiazol-5-yl)ethyl)isonicotinamide]"
9,≤ 1000,"C[C@H](NC(=O)[C@@H](C)c1ccccc1)c1nc(-c2ccnc(C3CC3)c2)no1 [Compound I-64, (2S)—N-[(1S)-1-[3-(2-cyclopropyl-4-pyridyl)-1,2,4-oxadiazol-5-yl]ethyl]-2-phenyl-propanamide]"
10,≤ 1000,"C[C@H](NC(=O)c1ccccc1)c1nc(-c2ccnc(C(F)(F)F)c2)no1 [Compound I-8, (S)—N-(1-(3-(2-(trifluoromethyl)pyridin-4-yl)-1,2,4-oxadiazol-5-yl)ethyl)benzamide]"
11,≤ 1000,"C[C@H](NC(=O)[C@H]1CC[C@@H](C)CC1)c1nc(-c2ccnc(C3CC3)c2)no1 [Compound I-84, (1S,4R)—N—((S)-1-(3-(2-cyclopropylpyridin-4-yl)-1,2,4-oxadiazol-5-yl)ethyl)-4-methylcyclohexane-1-carboxamide]"

# Continued, compound first:
row,SMILES,IC50 [nM]
1,"C[C@H](NC(=O)C1CC2(CCC2)C1)c1nc(-c2ccnc(C(F)(F)F)c2)no1 [Compound I-76, N-[(1S)-1-[3-[2-(trifluoromethyl)-4-pyridyl]-1,2,4-oxadiazol-5-yl]ethyl]spiro[3.3]heptane-2-carboxamide]",≤ 1000
2,"C[C@H](NC(=O)c1ccncc1)c1nc(-c2ccnc(C(F)(F)F)c2)no1 [Compound I-6, (S)—N-(1-(3-(2-(trifluoromethyl)pyridin-4-yl)-1,2,4-oxadiazol-5-yl)ethyl)isonicotinamide]",≥ 20000
3,"CC(C)Oc1cc(-c2noc([C@H](C)NC(=O)C3CCCC3)n2)ccn1 [Compound I-46, (S)—N-(1-(3-(2-isopropoxypyridin-4-yl)-1,2,4-oxadiazol-5-yl)ethyl)cyclopentane-carboxamide]",≤ 1000
4,"C[C@H](NC(=O)[C@@H]1CCC(=O)N1)c1nc(-c2ccnc(C(F)(F)F)c2)no1 [Compound I-54, (S)-5-oxo-N—((S)-1-(3-(2-(trifluoromethyl)pyridin-4-yl)-1,2,4-oxadiazol-5-yl)ethyl)pyrrolidine-2-carboxamide]",≥ 20000
5,"C[C@H](NC(=O)C1CCOCC1)c1nc(-c2ccnc(C(F)(F)F)c2)no1 [Compound I-12, (S)—N-(1-(3-(2-(trifluoromethyl)pyridin-4-yl)-1,2,4-oxadiazol-5-yl)ethyl)tetrahydro-2H-pyran-4-carboxamide]",≥ 20000
6,"C[C@H](NC(=O)CC(C)(C)C)c1nc(-c2ccnc(C(F)(F)F)c2)no1 [III-3, (S)-3,3-dimethyl-N-(1-(3-(2-(trifluoromethyl)pyridin-4-yl)-1,2,4-oxadiazol-5-yl)ethyl)butanamide]",1000 to 20000
7,"C[C@H](NC(=O)C1CCCC12CC2)c1nc(-c2ccnc(C(F)(F)F)c2)no1 (stereo partly drawn) [Compound I-82, N-[(1S)-1-[3-[2-(trifluoromethyl)-4-pyridyl]-1,2,4-oxadiazol-5-yl]ethyl]spiro[2.4]heptane-7-carboxamide]",≤ 1000
8,"CC[C@H](NC(=O)Cc1ccccc1)c1nc(-c2ccnc(C(F)(F)F)c2)no1 [Compound I-15, (S)-2-phenyl-N-(1-(3-(2-(trifluoromethyl)pyridin-4-yl)-1,2,4-oxadiazol-5-yl)propyl)acetamide]",≤ 1000
9,"CCn1nc(C)c(C(=O)N[C@@H](C)c2nc(-c3cccc(F)c3)no2)n1 [Compound I-40, (S)-2-ethyl-N-(1-(3-(3-fluorophenyl)-1,2,4-oxadiazol-5-yl)ethyl)-5-methyl-2H-1,2,3-triazole-4-carboxamide]",1000 to 20000
10,"C[C@H](NC(=O)[C@H](C)c1ccccc1)c1nc(-c2ccnc(C(F)(F)F)c2)no1 [Compound I-17, (R)-2-phenyl-N—((S)-1-(3-(2-(trifluoromethyl)pyridin-4-yl)-1,2,4-oxadiazol-5-yl)ethyl)propanamide]",≤ 1000
11,"C[C@H](NC(=O)C12CCC(CC1)CC2)c1nc(-c2ccnc(C(F)(F)F)c2)no1 [Compound I-59, (S)—N-(1-(3-(2-(trifluoromethyl)pyridin-4-yl)-1,2,4-oxadiazol-5-yl)ethyl)bicyclo[2.2.2]octane-1-carboxamide]",≤ 1000
12,"C[C@H](NC(=O)Cc1ccccc1)c1nc(-c2ccnc(C(F)(F)F)c2)no1 [Compound I-13, (S)-2-phenyl-N-(1-(3-(2-(trifluoromethyl)pyridin-4-yl)-1,2,4-oxadiazol-5-yl)ethyl)acetamide]",1000 to 20000
13,"C[C@H](NC(=O)C1CC(F)(F)C1)c1nc(-c2ccnc(C(F)(F)F)c2)no1 [Compound I-2, (S)-3,3-difluoro-N-(1-(3-(2-(trifluoromethyl)pyridin-4-yl)-1,2,4-oxadiazol-5-yl)ethyl)cyclobutane-1-carboxamide]",1000 to 20000
